{"source": "the supplement of paper PMC11208160"}
{"experiment": "recombinant barcode read abundance after kanamycin selection (control-corrected) (log10(CPM+1)); higher = more efficient recombination; sequences stand for … in AGTGCAGAGAAAATCGGCCAGTTTTCTCTGCCTGCAGTCCGCATGCCGT…AGATTTATGCAGCGGACTGCCTTTCTCCCAAAGTGATAAACCGGACAGTATCATGGACCGGTTTTCCCGGTAATCCGTATTTGCAAGGTTGGTTTCACT; site = the 11-nt target", "in_short": "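Pooled E. coli screen pairing targets with IS621 bridge RNA target-binding loops. Each oligo (promoter, target, barcode, J23119-driven first 104 bridge RNA bases) was Gibson-cloned into a vector with the remaining 73 bp and T7-inducible recombinase, then co-electroporated with a donor plasmid. Two replicates each were plated on chloramphenicol/ampicillin LB agar (control) or chloramphenicol/ampicillin/kanamycin with 0.1 mM IPTG. Recombination efficiency is recombinant-junction barcode counts as CPM, averaged, control-corrected, reported as log10(CPM+1).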"}
{"sequence": "AGTAATTCTTGGGTTCTAACCTGTTGCCT (site AGGAATTCTAG)", "recombinant barcode read abundance (log10)": 0.0166}
{"sequence": "AGTAATTCTTGGGTTCTAACCTGTTGCCT (site AGTAATTCTAG)", "recombinant barcode read abundance (log10)": 0.454}
{"sequence": "AGTACCTCTTGGGTTCTAACCTGTTGCCT (site AATACCTCTAG)", "recombinant barcode read abundance (log10)": 0.192}
{"sequence": "AGTACCTCTTGGGTTCTAACCTGTTGCCT (site ACTACCTCTAG)", "recombinant barcode read abundance (log10)": 0.283}
{"sequence": "AGTACCTCTTGGGTTCTAACCTGTTGCCT (site AGTACCTCTAG)", "recombinant barcode read abundance (log10)": 0.941}
{"sequence": "AGTACCTCTTGGGTTCTAACCTGTTGCCT (site ATTACCTCTAG)", "recombinant barcode read abundance (log10)": 0.0826}
{"sequence": "AGTAGACCTTGGGTTCTAACCTGTTGCTT (site AGTAGACCTAA)", "recombinant barcode read abundance (log10)": 0.828}
{"sequence": "AGTAGACCTTGGGTTCTAACCTGTTGCTT (site AGTATACCTCA)", "recombinant barcode read abundance (log10)": 0.0353}
{"sequence": "AGTATACCTTGGGTTCTAACCTGTTGCTG (site AGTAGACCTAA)", "recombinant barcode read abundance (log10)": 0.178}
{"sequence": "AGTATACCTTGGGTTCTAACCTGTTGCTG (site AGTATACCTCA)", "recombinant barcode read abundance (log10)": 1.31}
{"sequence": "AGTCAGACTTGGGTTCTAACCTGTTGCAC (site AGTCAGACTGT)", "recombinant barcode read abundance (log10)": 1.19}
{"sequence": "AGTCAGACTTGGGTTCTAACCTGTTGCAC (site CTAAGCGCTAG)", "recombinant barcode read abundance (log10)": 0.396}
{"sequence": "AGTCAGCCTTGGGTTCTAACCTGTTGCCT (site AGTAAGCCTAG)", "recombinant barcode read abundance (log10)": 0.0129}
{"sequence": "AGTCAGCCTTGGGTTCTAACCTGTTGCCT (site AGTCAGCCTAG)", "recombinant barcode read abundance (log10)": 0.749}
{"sequence": "AGTCAGCCTTGGGTTCTAACCTGTTGCCT (site AGTGAGCCTAG)", "recombinant barcode read abundance (log10)": 0.318}
{"sequence": "AGTCAGCCTTGGGTTCTAACCTGTTGCCT (site AGTTAGCCTAG)", "recombinant barcode read abundance (log10)": 0.133}
{"sequence": "AGTCAGTCTTGGGTTCTAACCTGTTGCCA (site AGTCAGTCTTG)", "recombinant barcode read abundance (log10)": 0.0748}
{"sequence": "AGTCAGTCTTGGGTTCTAACCTGTTGCCA (site AGTTAGTCTTG)", "recombinant barcode read abundance (log10)": 0.121}
{"sequence": "AGTCATACTTGGGTTCTAACCTGTTGCAT (site AGTCATACTAT)", "recombinant barcode read abundance (log10)": 0.356}
{"sequence": "AGTCATACTTGGGTTCTAACCTGTTGCAT (site AGTCATCCTAG)", "recombinant barcode read abundance (log10)": 0.0486}
{"sequence": "AGTCATACTTGGGTTCTAACCTGTTGCCA (site AGTCATACTTG)", "recombinant barcode read abundance (log10)": 0.355}
{"sequence": "AGTCATACTTGGGTTCTAACCTGTTGCCA (site GACGTGTCTAC)", "recombinant barcode read abundance (log10)": 0.0524}
{"sequence": "AGTCCTTCTTGGGTTCTAACCTGTTGCAT (site AGTCCTTCTAT)", "recombinant barcode read abundance (log10)": 0.878}
{"sequence": "AGTCCTTCTTGGGTTCTAACCTGTTGCAT (site CGTCCTTCTAG)", "recombinant barcode read abundance (log10)": 0.0721}
{"sequence": "AGTCTACCTTGGGTTCTAACCTGTTGCCT (site AGTCTACCTAG)", "recombinant barcode read abundance (log10)": 1.23}
{"sequence": "AGTCTACCTTGGGTTCTAACCTGTTGCCT (site CGTCTACCTAG)", "recombinant barcode read abundance (log10)": 0.0985}
{"sequence": "AGTCTAGCTTGGGTTCTAACCTGTTGCCG (site AGTCTAGCTAG)", "recombinant barcode read abundance (log10)": 0.083}
{"sequence": "AGTCTAGCTTGGGTTCTAACCTGTTGCCG (site AGTCTAGCTCG)", "recombinant barcode read abundance (log10)": 0.67}
{"sequence": "AGTCTAGCTTGGGTTCTAACCTGTTGCCG (site AGTCTAGCTGG)", "recombinant barcode read abundance (log10)": 0.0274}
{"sequence": "AGTCTAGCTTGGGTTCTAACCTGTTGCCG (site AGTCTAGCTTG)", "recombinant barcode read abundance (log10)": 0.641}
{"sequence": "AGTCTCCCTTGGGTTCTAACCTGTTGCCT (site AGACTCCCTAG)", "recombinant barcode read abundance (log10)": 0.372}
{"sequence": "AGTCTCCCTTGGGTTCTAACCTGTTGCCT (site AGCCTCCCTAG)", "recombinant barcode read abundance (log10)": 0.0404}
{"sequence": "AGTCTCCCTTGGGTTCTAACCTGTTGCCT (site AGGCTCCCTAG)", "recombinant barcode read abundance (log10)": 0.0232}
{"sequence": "AGTCTCCCTTGGGTTCTAACCTGTTGCCT (site AGTCTCCCTAG)", "recombinant barcode read abundance (log10)": 1.56}
{"sequence": "AGTCTCTCTTGGGTTCTAACCTGTTGCCG (site AGTCTCTCTCG)", "recombinant barcode read abundance (log10)": 0.357}
{"sequence": "AGTCTCTCTTGGGTTCTAACCTGTTGCCG (site AGTCTCTCTTA)", "recombinant barcode read abundance (log10)": 0.0569}
{"sequence": "AGTGCGGCTTGGGTTCTAACCTGTTGCCT (site AGTGCGGCTAG)", "recombinant barcode read abundance (log10)": 0.685}
{"sequence": "AGTGCGGCTTGGGTTCTAACCTGTTGCCT (site CGTGCGGCTAG)", "recombinant barcode read abundance (log10)": 0.231}
{"sequence": "AGTGCGGCTTGGGTTCTAACCTGTTGCCT (site GGTGCGGCTAG)", "recombinant barcode read abundance (log10)": 0.0363}
{"sequence": "AGTGCGGCTTGGGTTCTAACCTGTTGCCT (site TGTGCGGCTAG)", "recombinant barcode read abundance (log10)": 0.143}
{"sequence": "AGTTAACCTTGGGTTCTAACCTGTTGCGG (site ACTTGACCTCC)", "recombinant barcode read abundance (log10)": 0.0373}
{"sequence": "AGTTAACCTTGGGTTCTAACCTGTTGCGG (site AGTTAACCTCC)", "recombinant barcode read abundance (log10)": 1.97}
{"sequence": "AGTTACACTTGGGTTCTAACCTGTTGCCT (site AGTTACACTAG)", "recombinant barcode read abundance (log10)": 0.637}
{"sequence": "AGTTACACTTGGGTTCTAACCTGTTGCCT (site AGTTCCACTAG)", "recombinant barcode read abundance (log10)": 0.0139}
{"sequence": "AGTTACACTTGGGTTCTAACCTGTTGCCT (site AGTTGCACTAG)", "recombinant barcode read abundance (log10)": 0.0991}
{"sequence": "AGTTACACTTGGGTTCTAACCTGTTGCCT (site AGTTTCACTAG)", "recombinant barcode read abundance (log10)": 0.0317}
{"sequence": "AGTTAGCCTTGGGTTCTAACCTGTTGCCT (site AGTAAGCCTAG)", "recombinant barcode read abundance (log10)": 0.107}
{"sequence": "AGTTAGCCTTGGGTTCTAACCTGTTGCCT (site AGTCAGCCTAG)", "recombinant barcode read abundance (log10)": 0.161}
{"sequence": "AGTTAGCCTTGGGTTCTAACCTGTTGCCT (site AGTGAGCCTAG)", "recombinant barcode read abundance (log10)": 0.114}
{"sequence": "AGTTAGCCTTGGGTTCTAACCTGTTGCCT (site AGTTAGCCTAG)", "recombinant barcode read abundance (log10)": 0.361}
{"sequence": "AGTTAGTCTTGGGTTCTAACCTGTTGCAG (site AGTTAGTCTCT)", "recombinant barcode read abundance (log10)": 1.48}
{"sequence": "AGTTAGTCTTGGGTTCTAACCTGTTGCAG (site GTACGCACTAG)", "recombinant barcode read abundance (log10)": 0.0583}
{"sequence": "AGTTCACCTTGGGTTCTAACCTGTTGCTA (site AGTTCACCTTA)", "recombinant barcode read abundance (log10)": 0.0738}
{"sequence": "AGTTCACCTTGGGTTCTAACCTGTTGCTA (site GAGGGCTCTCC)", "recombinant barcode read abundance (log10)": 0.314}
{"sequence": "AGTTCATCTTGGGTTCTAACCTGTTGCAT (site AGTTCATCTAT)", "recombinant barcode read abundance (log10)": 0.0989}
{"sequence": "AGTTCATCTTGGGTTCTAACCTGTTGCAT (site CTAGATGCTTC)", "recombinant barcode read abundance (log10)": 0}
{"sequence": "AGTTGCCCTTGGGTTCTAACCTGTTGCCT (site AATTGCCCTAG)", "recombinant barcode read abundance (log10)": 0.738}
{"sequence": "AGTTGCCCTTGGGTTCTAACCTGTTGCCT (site ACTTGCCCTAG)", "recombinant barcode read abundance (log10)": 0.068}
{"sequence": "AGTTGCCCTTGGGTTCTAACCTGTTGCCT (site AGTTGCCCTAG)", "recombinant barcode read abundance (log10)": 0.457}
{"sequence": "AGTTGCCCTTGGGTTCTAACCTGTTGCCT (site ATTTGCCCTAG)", "recombinant barcode read abundance (log10)": 0.0653}
{"sequence": "AGTTGGCCTTGGGTTCTAACCTGTTGCGA (site AGTTGGCCTTC)", "recombinant barcode read abundance (log10)": 0.45}
{"sequence": "AGTTGGCCTTGGGTTCTAACCTGTTGCGA (site CCACCTTCTAG)", "recombinant barcode read abundance (log10)": 0.123}
{"sequence": "AGTTGTCCTTGGGTTCTAACCTGTTGCCT (site AGTTGTCCTAA)", "recombinant barcode read abundance (log10)": 0.174}
{"sequence": "AGTTGTCCTTGGGTTCTAACCTGTTGCCT (site AGTTGTCCTAC)", "recombinant barcode read abundance (log10)": 0.0671}
{"sequence": "AGTTGTCCTTGGGTTCTAACCTGTTGCCT (site AGTTGTCCTAG)", "recombinant barcode read abundance (log10)": 0.132}
{"sequence": "AGTTGTCCTTGGGTTCTAACCTGTTGCCT (site AGTTGTCCTAT)", "recombinant barcode read abundance (log10)": 0.296}
